Measurements taken from paper PMC13083723 (Patterns, 2026).
Where a name gives a salt, the structure may show the parent alone. Read-outs that look alike come from different tables or passages of the source.

What was measured:
Vero-E6 cells = experiment: cells; assay type: cell-based; details: for activation at 5 µM / activation at 10 µM / activation at 20 µM: Vero C1008, 24 h; for activation at 5 µM: read-out: PLD Effect in % 5 µM; for activation at 10 µM: read-out: PLD Effect in % 10 µM; for activation at 20 µM: read-out: PLD Effect in % 20 µM
SARS-CoV-2 [1] = details: cited from earlier work; for Vero-E6 CPE inhibition %: 10 µM
SARS-CoV-2 [2] = details: cited from earlier work; for CaCo2 CPE inhibition %: Caco-2, 20 µM
[3] = Chlorocebus sabaeus, Vero C1008, read-out: PLD EC50 µM

Row | SMILES | activation at 5 µM (Vero-E6 cells; Chlorocebus sabaeus) [%] | activation at 10 µM (Vero-E6 cells; Chlorocebus sabaeus) [%] | activation at 20 µM (Vero-E6 cells; Chlorocebus sabaeus) [%] | Vero-E6 CPE inhibition % (SARS-CoV-2 [1]) | CaCo2 CPE inhibition % (SARS-CoV-2 [2]) | PLD Effect in % 5 µM (Vero-E6 cells) | PLD Effect in % 10 µM (Vero-E6 cells) | PLD Effect in % 20 µM (Vero-E6 cells) | EC50 (Vero-E6 cells; read-out: PLD EC50) [µM] | PLD EC50 µM (Vero-E6 cells) | Vero-E6 EC50 µM (SARS-CoV-2 [1]) | CaCo2 EC50 µM (SARS-CoV-2 [2]) | EC50 (Vero-E6 cells; [3]) [µM] | EC50 (SARS-CoV-2 [1]; read-out: Vero-E6 EC50) [nM] | EC50 (Vero-E6 cells; Chlorocebus sabaeus, Vero C1008, read-out: PLD EC50) [µM]
1 | CCOc1cc2ncc(C#N)c(Nc3ccc(F)c(Cl)c3)c2cc1NC(=O)/C=C/CN(C)C [Pelitinib (EKB-569), Pelitinib, reference compound] | 76.1 | 85.5 | 101 | -0.31 | 83.39% |  |  |  |  |  |  |  |  |  | 
2 | CCCCN1[C@@H]2CC[C@H]1C[C@@H](OC(c1ccc(F)cc1)c1ccc(F)cc1)C2 [JHW-007, reference compound] |  |  |  | -0.32% | 93.14% | 115.34% | 112.39% | 86.69% | 0.71 |  |  |  |  |  | 
3 | CCN1CCN(Cc2ccc(C(=O)Nc3ccc(C)c(Oc4ccc5c(c4)CC(=O)N5)c3)cc2C(F)(F)F)CC1 [DDR1-IN-1, reference compound] | 55.7 | 75.8 | 21.8 | -0.37% | 77.58% |  |  |  |  |  |  |  |  |  | 
4 | CSc1ccccc1Nc1nc(N2CCNCC2)nc2c(NCC3CC3)ncnc12 [KHK-IN-1, reference compound] |  |  |  | toxic | toxic | toxic | toxic | toxic |  | toxic | toxic | toxic |  |  | 
5 | O=C(Nc1ccc(CN2CCOCC2)cc1)c1ccc(-c2cccc(Cl)c2)o1 [CID-2011756, reference compound] |  |  |  | 0.15 | 96.96% | 27.66% | 31.32% | 55.98% | > 20 |  |  |  |  |  | 
6 | O=C1Nc2ccc(Cl)c3c2C1(CCCCN1CC=C(c2ccc(Cl)cc2)CC1)CCC3 (stereo not shown) [DR-4485, reference compound] |  |  |  | -0.26% | 82.83% | 94.34% | 201.85% | -16.80% |  |  |  |  |  |  | 
7 | CC(C)c1ccc2c(c1)CC[C@H]1[C@](C)(CN)CCC[C@]21C [Lylamine, reference compound] |  |  |  | -0.36% | 76.43% | 104.48% | 133.55% | -41.01% |  |  |  |  |  |  | 
8 | COC(=O)C1=C(C)NC(C)=C(C(=O)NCCCN2CCC(c3ccccc3)(c3ccccc3)CC2)C1c1ccc([N+](=O)[O-])cc1 (stereo not shown) [SNAP-5089, reference compound] | 66.5 | 78.4 | 24.9 | -0.12% | 72.63% |  |  |  |  |  |  |  | 2.01 |  | 
9 | CCN(CC)CC1CCN(c2ncc3ncnc(Nc4ccc(F)c(Cl)c4)c3n2)CC1 [BIBU-1361, reference compound] |  |  |  | -0.24% | 78.51% | 160.51% | 180.15% | -42.53% | 0.63 |  |  |  |  |  | 
10 | CC(C)[C@H]1c2ccc(F)cc2CC[C@@]1(CCN(C)CCCc1nc2ccccc2[nH]1)OC(=O)C1CC1 [NNC-55-0396, reference compound] |  |  |  | 0% | 58.09% | 87.06% | 154.81% | -43.08% | 6.28 |  |  |  |  | 8210 | 
11 | COc1ccc(CCN(C)CCCOc2ccc(S(=O)(=O)c3c(C(C)C)c4ccccc4n3C)cc2)cc1OC [SR-33805 oxalate, reference compound] |  |  |  | 0.02 | 67.72% | 54.44% | 86.07% | 137.08% | 9.26 |  |  |  |  |  | 
12 | O=C(NC1CCN(CCCCC2(C(=O)NCC(F)(F)F)c3ccccc3-c3ccccc32)CC1)c1ccccc1-c1ccc(C(F)(F)F)cc1 [Lomitapide, reference compound] | 82.8 | 169 | -28.6 | -0.39% | 77.37% |  |  |  |  |  |  |  |  |  | 
13 | O=C(c1ccc(F)c(F)c1Nc1ccc(I)cc1F)N1CC(O)([C@@H]2CCCCN2)C1 [Cobimetinib, reference compound] | 112 | 135 | 133 | -0.31% | 61.58% |  |  |  |  |  |  |  | 1.34 |  | 
14 | CCOc1cc(C(C)(C)C)ccc1C1=N[C@@](C)(c2ccc(Cl)cc2)[C@@](C)(c2ccc(Cl)cc2)N1C(=O)N1CCN(CCCS(C)(=O)=O)CC1 [RG7112 (RO50455337), reference compound] | 109 | 141 | 88.5 | 6.32 | 88.52% |  |  |  |  |  |  |  |  |  | 2.56
